From US11213512B2, “Bis-amino acid based compound and use thereof” (THE CURATORS OF THE UNIVERSITY OF MISSOURI, priority 2016, dated 2022)
Read-outs that look alike come from different tables or passages of the source.

Columns and labels:
E. coli K12 = assay: MIC, CLSI/NCCLS broth microdilution; type: cell-based, Escherichia coli; conditions: read-out: Minimal Inhibitory Concentration (MIC) E. coli K12
Description: (§1) Two different strains of E. coli (Gram-negative) were used. The laboratory strain of E. coli, K-12 (ATCC Accession No. 700926), was used for preliminary MIC determinations. The tetracycline resistant strain of E. coli (Tet^R) was prepared by transforming competent JM109 E. coli (Promega) with the pBR322 plasmid (Carolina Biologicals) using the manufacturers protocol. This plasmid contains two resistance genes: the tetA gene expresses the tetracycline resistance TetA efflux pump (Sapunaric and Levy, Microbiol. 2005, 151, 2315-2322) and the amp^R gene expresses a β-lactamase enzyme (Bolivar, et al; Gene 1977, 2, 95-113) that cleaves the four membered ring of penicillin derivatives. The resulting E. coli, which we designate Tet^R E. coli, is both tetracycline and ampicillin resistant. The TetA efflux pump belongs to the major facilitator superfamily (MFS), spans the cytoplasmic membrane, and transports tetracycline from the cell cytoplasm to the periplasmic space (Thanassi, et al., J. Bacteriol. 1995, 177, 998-1007). This active efflux utilizes the proton gradient as an energy source (Levy, Antimicrob. Agents Chemother. 1992, 36, 695-703). One Gram-positive strain, S. aureus (ATCC Accession No. 29213), used for MIC study expresses the MFS type NorA efflux pump and is methicillin sensitive. MFS type efflux pumps are clinically relevant for resistance in both Gram-positive and Gram-negative bacteria (Sun, et al., Biochem. Biophys. Res. Commun. 2014, 453, 254-267). A Staphylococcus aureus 1199B strain that overexpresses the NorA efflux pump was also used to conduct checkerboard experiments (see, Example 8 below). This strain of S. aureus 1199B is resistant to both norfloxacin and ethidium bromide.
(§2) K-12 E. coli and S. aureus were acquired from ATCC. The S. aureus strain was used in the BSL-2 facility. K-12 E. coli was grown in L. B. Miller media (Sigma-Aldrich) and S. aureus was grown in cation adjusted MHII media (Sigma-Aldrich). Tet^R E. coli was grown in L. B. Miller media containing 100 μg/mL Ampicillin.
(§3) MIC experiments were performed as described in the Clinical and Laboratory Standards Institute (CLSI) standard microdilution protocols. Bacteria was grown overnight from one CFU in media without antibiotics. Tet^R E. coli was grown in media containing 100 μg/mL Ampicillin. On the day of experiment, bacteria were knocked back to O.D. 600 nm=0.550 in the same media. These exponential phase bacteria were then diluted in antibiotics-free media to get […]. In a 96-well plate either L. B. Miller or MHII media was added followed by serially diluted compounds 1-11, tetracycline, or ampicillin. All the tryptophan based compounds were dissolved in DMSO and the final concentration of DMSO in each well was kept constant at 0.5% (v/v).
(§4) For the combination experiments, first, the BT or control was added to the media in the well followed by the antibiotics. The contents of the well were mixed before adding 20 μL of bacteria to get 4×10^5 CFU/mL per well. The plates were incubated at 37° C., 200 RPM for 24 hours before collecting results on the Biotek Cytation 3 plate reader. No more than three plates were stacked on top of each other at a time. Optical density of the wells was determined at λ=600 nm. Cells alone were considered as 0% inhibition and media alone was considered as 100% inhibition. Any inhibition greater than 80% was considered as the MIC. The results were reproduced three times before reporting.
(§5) All minimum inhibitory concentration (MIC) values for compounds 1-11 were determined according to the methods prescribed by the National Committee for Clinical Laboratory Standards (NCCLS, Methods for Dilution Antimicrobial Susceptibility Tests for Bacteria that grow aerobically; National Committee for Clinical Laboratory Standards 2000, 5th Edition, M7-A5). […]

Tet^R E. coli [1] = assay: MIC, CLSI/NCCLS broth microdilution; type: cell-based, Escherichia coli; conditions: 24 h; for Minimal Inhibitory Concentration (MIC) E. coli Tet^R: >80% growth inhibition, 37° C., substance alone; for MIC: Escherichia coli, read-out: Minimal Inhibitory Concentration (MIC) E. coli Tet^R
Description: as §1, §2, §3, §4, §5

[2] = test system: S. aureus (ATCC Accession No. 29213); assay: MIC, CLSI/NCCLS broth microdilution; type: cell-based, Staphylococcus aureus; conditions: read-out: Minimal Inhibitory Concentration (MIC) S. aureus
Description: as §1, §2, §3, §4, §5

Tet^R E. coli [3] = assay: Membrane permeability and viability, confocal microscopy (propidium iodide / fluorescein diacetate); type: cell-based, Escherichia coli; conditions: 0.1% (~1,670 μM) control detergent
Description: To test the membrane permeability of the Tet^R E. coli, the bacteria was first grown overnight from one CFU in media containing 100 μg/mL Ampicillin at 37° C. and 200 RPM. Tet^R E. coli was then knocked back to O.D. 600 nm=0.550 before use. In a sterile test tube, cells were added followed by either compounds 2 or 10 at half-MIC concentrations and incubated at 37° C. and 200 RPM. The concentration of DMSO was kept constant at 0.5% —by volume in each case. After 30 minutes of incubation, the cells were washed by centrifugation at 3000×g for 5 minutes and re-suspended in sterile phosphate buffered saline (PBS). Propidium iodide (30 μM, Thermo-Fischer) and fluorescein diacetate (60 μM, Sigma-Aldrich) were added to the Tet^R E. coli cells in the PBS, mixed by vortexing and incubated at 37° C. and 200 RPM. After 30 minutes, the cells were washed again by centrifugation at 3000×g for 5 minutes. The pellet was suspended in a fresh PBS, loaded onto a clean glass slide, covered with a cover slip and observed under Zeiss LSM 700 confocal microscope.
The study was designed to assess the membrane permeability and viability of the E. coli in the presence of BTs 2 and 10. The three panels in FIG. 6 show the bright field (BF) microscopic images (top row), the result when fluorescein diacetate (FDA) is present (middle row), and the presence of propidium iodide (PI, bottom row), if any. […] When it does, it intercalates in DNA, which leads to enhanced fluorescence. Fluorescein diacetate is incorporated into the cells during growth, but is not fluorescent. If the organism is or remains vital, the diester will be hydrolyzed and fluorescein will be observed by its fluorescence emission.
Controls for the permeability/viability assay were included for E. coli in the presence of a final concentration of 0.5% (v/v) DMSO (the vehicle for administration of BTs), and a final concentration of 0.1% […] Triton X-100. […] Thus, less than or equal to 0.5% DMSO (v/v) was always used; the control is shown in the second column. Triton X-100 is a potent detergent, which was used at 0.1% or ˜1,670 μM.

HEK-293 cells = assay: Mammalian cell permeability and vitality, confocal microscopy (propidium iodide / fluorescein diacetate); type: cell-based, human
Description: To test the permeability of HEK-293 cells, the cells were cultured in growth medium as described above. HEK-293 (90% confluent) were then seeded in a 96-well plate to get 30,000 cells/well. After 24 hours of incubation at 37° C. and 5% CO2, the spent media was replaced with media (DMEM and 10% FBS) containing compound 2 at either 20 μM or 80 μM. […] Triton X-100 at 0.1%—by volume (1670 μM) and DMSO 0.5% (v/v) were also used as controls. After 2 hours of incubation, spent media was replaced with PBS containing propidium iodide (30 μM) and fluorescein diacetate (60 μM) and incubated at 37° C. and 5% CO2. After 2 hour of incubation, the spend media was replaced with fresh PBS and the cells were observed under Zeiss LSM 700 confocal microscope. The images were reported without any alterations. The gain and the intensity in all the images were kept constant.
A compound that inhibits bacterial growth and penetrates into the microbe's cytosol may also penetrate into mammalian cells. A similar microscopic study was conducted with the human embryonic kidney (HEK-293) cell line. In this case, only compound 2 was studied. […] The microscopic study was therefore conducted at 20 μM, a value well below any inhibitory concentration, and at 80 μM, a concentration above all three MIC values. The 80 μM concentration was used to confirm the […] of 2 and to establish the lack of serum inhibition.

[4] = >80% growth inhibition, 24 h, 37° C.
[5] = Staphylococcus aureus, ATCC29213, 24 h

Compound | MIC (E. coli K12; [4]) [µM] | MIC (E. coli K12; Escherichia coli, K12, 24 h) [µM] | Minimal Inhibitory Concentration (MIC) E. coli Tet^R (Tet^R E. coli [1]) [µM] | MIC (Tet^R E. coli [1]) [µM] | MIC [2, 4] [µM] | MIC [2, 5] [µM] | melting point | MIC (E. coli K12; Escherichia coli, K12, >80% growth inhibition, 24 h, 37° C.) [µM] | viability (fluorescein diacetate fluorescence) (Tet^R E. coli [3]) | propidium iodide penetration (membrane permeability) (HEK-293 cells)
Cl.Cl.NCC(=O)Nc1cccc(NC(=O)CN)c1 [Compound 1, 2,2′-(1,3-Phenylenebis(azanediyl))bis(2-oxoethanaminium) chloride] | >128 | > 128 | >128 | > 128 | >128 | > 128 | 310 °C (dec.) |  |  | 
O=C(CCc1c[nH]c2ccccc12)Nc1cccc(NC(=O)CCc2c[nH]c3ccccc23)c1 [Compound 4, N,N′-(1,3-Phenylene)bis(3-(1H-indol-3-yl)propanamide)] |  | > 128 |  | > 128 |  | > 128 | 154 to 156 °C |  |  | 
Cl.Cl.N[C@H](Cc1c[nH]c2ccccc12)C(=O)NCCCCNC(=O)[C@@H](N)Cc1c[nH]c2ccccc12 [Compound 8, (S)-1-((4-((R)-2-Ammonio-3-(1H-indol-3-yl)propanamido)butyl)amino)-3-(1H-indol-3-yl)-1-oxopropan-2-aminium chloride] |  | > 128 |  | > 128 |  | > 128 | 204 °C (dec.) |  |  | 
Cl.Cl.N[C@@H](Cc1c[nH]c2ccccc12)C(=O)NCCCCCCNC(=O)[C@@H](N)Cc1c[nH]c2ccccc12 [Compound 9, (2S,2′S)-1,1′-(Hexane-1,6-diylbis(azanediyl))bis(3-(1H-indol-3-yl)-1-oxopropan-2-aminium) chloride] |  | > 128 |  | 128 |  | > 128 | 193 °C (dec.) |  |  | 
Cl.N[C@@H](Cc1c[nH]c2ccccc12)C(=O)Nc1ccccc1 [Compound 11, (S)-3-(1H-Indol-3-yl)-1-oxo-1-(phenylamino)propan-2-aminium chloride] | >128 | > 128 | >128 | > 128 | >128 | > 128 |  |  |  | 
CC1(C)S[C@@H]2[C@H](NC(=O)[C@H](N)c3ccccc3)C(=O)N2[C@H]1C(=O)O [ampicillin, reference compound] |  |  |  | > 1000 |  |  |  |  |  | 
CN(C)[C@@H]1C(O)=C(C(N)=O)C(=O)[C@@]2(O)C(O)=C3C(=O)c4c(O)cccc4[C@@](C)(O)[C@H]3C[C@@H]12 [tetracycline, reference compound] |  |  | 900 | 900 ± 100 |  |  |  | ~3 |  | 
Triton X-100 [reference compound] |  |  |  |  |  |  |  |  | essentially all the cells were killed | strong signal from propidium iodide
